In paper PMC10976160, “Comparative Pharmacokinetics Research of 13 Bioactive Components of Jieyu Pills in Control and Attention Deficit Hyperactivity Disorder Model Rats Based on UPLC-Orbitrap Fusion MS” (Molecules, 2024):
Where two headings read alike, the source gives them in different places.

Assay: Pharmacokinetics in control rats after gavage of JYPs
Assay type: in vivo, Sprague Dawley (SD) rats
Details: for half-life / Tmax / AUC(0-inf) / AUC(0-t) / Cmax / MRT inf / MRT last: male, rat, plasma; for Tmax: po; for MRT inf: read-out: MRT(0-∞); for MRT last: read-out: MRT(0-t)
Excerpt: According to the established method for the analysis of serum biological samples, the pharmacokinetics of various components of rat serum were investigated after the administration of different dosages of JYPs to control rats.
For the control experiment, healthy male Sprague Dawley (SD) rats of SPF grade ([…] ± 20 g) were purchased from Sipeifu (Beijing) Biotechnology Co., Ltd. (Beijing, China), Animal Quality Certificate No. 110324220102348616. For the ADHD model rats, healthy male SHR rats of SPF grade, weighing 220 ± 20 g, were purchased from SBF (Beijing) Biotechnology Co., Ltd. (Beijing, China), License No. SCXK (Yu) 2019-0010. The animals were accommodated in the Animal Center of Henan University of Traditional Chinese Medicine, which successfully underwent an ethical audit with ethics number DWLL202208003. The animals were bred under controlled conditions at a temperature of 24 °C and a relative humidity of 50 ± 2%. Before the experiment, the animals abstained from eating for 12 h and had unrestricted access to water. The feeding and experimental research conducted on the experimental animals adhered to the laws outlined in the Management of Experimental Animals in Henan Province.
JYPs were ground into a fine powder and sieved through 60-mesh sieves; then, 20 g of fine JYP powder was taken, having been weighed precisely. A precise volume of 50 mL of pure water was added and mixed well to prepare a 0.4 g/mL suspension solution of JYPs, which was then stored in the refrigerator at 4 °C.
This study involved 24 healthy male SD rats with a body mass of 220 ± 20 g and 24 healthy male ADHD rats with a body mass of 220 ± 20 g. Subjects abstained from food for a duration of 12 h before the experiment and consumed water without restriction. Both kinds of rats were randomly divided into four groups: a blank group, given an equal dose of water intragastrically, and 3 different administration groups: rats given the equivalent human dose of JYPs by gavage in doses of 1.080 g/kg/d, 2.160 g/kg/d, and 4.320 g/kg/d. Tail vein blood was collected at 0.083, 0.25, 0.5, 0.75, 1, 1.5, 2, 3, 4, 6, 8, 12, 18, and 24 h after dosing. About 0.5 mL of blood was collected in sodium heparin centrifugal tubes, then centrifuged at 4 °C for 10 min at a speed of 3500r/min. We took the upper layer and placed it at −80 °C for preservation.
We took 200 μL of plasma, added 600 μL of methanol solution and 50 μL of internal standard (100 ng/mL), and subjected it to shaking for 5 min, followed by centrifugation at 4 °C at 12,000 r/min for 10 min. The supernatant was collected and allowed to dry, then reconstituted with 50 μL of 50% methanol and centrifuged at 4 °C at 14,000 r/min for a further 10 min. The supernatant after this process was taken as the test solution. A volume of 5 μL was used for UPLC-MS analysis. The drug concentration in plasma was calculated with the aid of the internal standard.
Chromatographic conditions: Hypersil GOLD (100 × 2.1 mm, 1.9 μm) column; column temperature 35 °C; mobile phase acetonitrile (A)/0.1% formic acid aqueous solution (B); gradient elution; gradient elution program: 0–0.5 min (95% B–95% B), 0.5–8 min (95% B–50% B), 8–14 min (50% B–20% B), 14–20 min (20% B–5% B), 20–22 min (5% B–5% B), 22–25 min (95% B–95% B); flow rate 0.2 mL/min; injection volume 5 μL.

[1] = Sprague Dawley, oral JYPs, range over compounds and doses, read-out: half-life (t1/2)
[2] = Sprague Dawley, oral JYPs, read-out: peak time (Tmax)
[3] = Sprague-Dawley, 1.08 g/kg/day, oral JYPs low dose 1.080 g/kg/d (1st of 3 values)
[4] = Sprague-Dawley, 1.08 g/kg/day, oral JYPs low dose 1.080 g/kg/d (1st of 3 values), read-out: t1/2 (converted)
[5] = Sprague-Dawley, 2.16 g/kg/day, oral JYPs medium dose 2.160 g/kg/d (2nd of 3 values)
[6] = Sprague-Dawley, 2.16 g/kg/day, oral JYPs medium dose 2.160 g/kg/d (2nd of 3 values), read-out: t1/2 (converted)
[7] = Sprague-Dawley, 4.32 g/kg/day, oral JYPs high dose 4.320 g/kg/d (3rd of 3 values)
[8] = Sprague-Dawley, 4.32 g/kg/day, oral JYPs high dose 4.320 g/kg/d (3rd of 3 values), read-out: t1/2 (converted)
[9] = Sprague-Dawley, 1.08 g/kg/day, oral JYPs low dose 1.080 g/kg/d (1st of 3 values), read-out: Tmax
[10] = Sprague-Dawley, 2.16 g/kg/day, oral JYPs medium dose 2.160 g/kg/d (2nd of 3 values), read-out: Tmax
[11] = oral JYPs high dose 4.320 g/kg/d (3rd of 3 values)
[12] = oral JYPs low dose 1.080 g/kg/d (1st of 3 values)
[13] = oral JYPs medium dose 2.160 g/kg/d (2nd of 3 values)
[14] = Sprague-Dawley, 4.32 g/kg/day, oral JYPs high dose 4.320 g/kg/d (3rd of 3 values), read-out: Tmax

| half-life [1] [min] | Tmax [2] [min] | AUC(0-inf) [3] [ng·h/mL] | AUC(0-t) [3] [ng·h/mL] | Cmax [3] [ng/mL] | MRT inf [3] [h] | half-life [4] [min] | AUC(0-t) [5] [ng·h/mL] | Cmax [5] [ng/mL] | MRT last [5] [h] | MRT inf [5] [h] | half-life [6] [min] | AUC(0-inf) [7] [ng·h/mL] | AUC(0-t) [7] [ng·h/mL] | Cmax [7] [ng/mL] | MRT last [7] [h] | MRT inf [7] [h] | half-life [8] [min] | Tmax [9] [min] | Tmax [10] [min] | SMILES | further results |
| --- | --- | --- | --- | --- | --- | --- | --- | --- | --- | --- | --- | --- | --- | --- | --- | --- | --- | --- | --- | --- | --- |
| 451 to 822 | < 60 | 135 ± 49.8 | 120 ± 40.6 | 38.9 ± 10.4 | 9.57 ± 3.88 | 451 ± 160 | 149 ± 49.5 | 47.4 ± 11.7 | 6.42 ± 0.6 | 13.3 ± 9.41 | 649 ± 553 | 245 ± 44.7 | 221 ± 42.5 | 67.4 ± 14.2 | 6.07 ± 1.19 | 9.11 ± 3.69 | 468 ± 198 | 31.8 ± 13.2 | 23.4 ± 10.2 | C[C@H]1O[C@@H](O[C@H]2CC[C@@]3(C)[C@@H](CC[C@]4(C)[C@@H]3C=C[C@]35OC[C@@]6(CCC(C)(C)C[C@H]63)[C@@H](O)C[C@]54C)[C@]2(C)CO)[C@H](O)[C@@H](O[C@@H]2O[C@H](CO)[C@@H](O)[C@H](O)[C@H]2O)[C@H]1O [Saikosaponin A] | AUMC(0-t) [11]: 1333.05± 317.31 ng/mL*(h)²; AUMC(0-ꝏ) [11]: 2265.45± 1085.76 ng/mL*(h)²; Clearances [11]: 4464.90 ± 760.17 mL/h; AUMC(0-t) [12]: 792.28± 390.55 ng/mL*(h)²; AUMC(0-ꝏ) [12]: 1355.37± 1006.84 ng/mL*(h)²; MRT(0-t) [12]: 6.55 ± 1.64 h; Vss [12]: 21125.87 ± 12315.99 mL; AUC(0-∞) [13]: 177.04 ± 46.52 ng·h/mL; AUMC(0-t) [13]: 935.87± 261.97 ng/mL*(h)²; AUMC(0-ꝏ) [13]: 2307.92± 1659.75 ng/mL*(h)²; Clearances [13]: 3201.17 ± 894.28 mL/h; Vss [13]: 42581.43 ± 30523.07 mL |
| 451 to 822 | < 60 | 97.3 ± 56.5 | 79.6 ± 44.6 | 21.5 ± 5.52 | 13.4 ± 4.81 | 686 ± 248 | 96.8 ± 29.3 | 30.1 ± 6.87 | 6.87 ± 0.65 | 13.3 ± 6.43 | 652 ± 401 | 157 ± 34.9 | 116 ± 12.3 | 41.8 ± 17.7 | 7.1 ± 1.12 | 16.6 ± 6.52 | 822 ± 337 | 25.8 ± 13.8 | 32.4 ± 6 | C[C@H]1O[C@@H](O[C@H]2CC[C@@]3(C)[C@@H](CC[C@]4(C)[C@@H]3C=C[C@]35OC[C@@]6(CCC(C)(C)C[C@H]63)[C@H](O)C[C@]54C)[C@]2(C)CO)[C@H](O)[C@@H](O[C@@H]2O[C@H](CO)[C@@H](O)[C@H](O)[C@H]2O)[C@H]1O [Saikosaponin D] | MRT last [3]: 7.08 ± 1.57 h; AUC(0-inf) [5]: 117 ± 33.2 ng·h/mL; Tmax [14]: 19.8 ± 7.8 min; AUMC(0-t) [11]: 830.12± 197.07 ng/mL*(h)²; AUMC(0-ꝏ) [11]: 2785.93± 1472.47 ng/mL*(h)²; Vss [11]: 68432.42 ± 15413.77 mL; AUMC(0-t) [12]: 592.40± 473.29 ng/mL*(h)²; AUMC(0-ꝏ) [12]: 1331.60± 1006.07 ng/mL*(h)²; Clearances [12]: 2081.51 ± 796.95 mL/h; Vss [12]: 27762.67 ± 16738.07 mL; AUMC(0-t) [13]: 662.12± 211.50 ng/mL*(h)²; AUMC(0-ꝏ) [13]: 1586.66± 988.85 ng/mL*(h)²; Vss [13]: 41378.73 ± 24017.48 mL |
| 862 to 1440 | < 120 | 40.8 ± 9.33 | 28.7 ± 8.22 | 3.37 ± 1.11 | 20.4 ± 8.24 | 924 ± 359 | 32.7 ± 6.04 | 4.47 ± 1.9 | 8.96 ± 0.63 | 32 ± 20.9 | 1440 ± 1020 | 53.4 ± 9.38 | 36.5 ± 7.42 | 5.27 ± 1.27 | 8.76 ± 0.37 | 21.6 ± 6.2 | 986 ± 324 | 100 ± 31.2 | 70.2 ± 24.6 | CCC/C=C1\OC(=O)C2=C1CCC=C2 [Z-Ligustilide] | MRT last [3]: 8.54 ± 1.12 h; AUC(0-inf) [5]: 58.6 ± 20.7 ng·h/mL; Tmax [14]: 67.8 ± 26.4 min; AUMC(0-t) [11]: 319.41± 64.35 ng/mL*(h)²; AUMC(0-ꝏ) [11]: 1163.41± 438.24 ng/mL*(h)²; AUMC(0-t) [12]: 244.45± 72.75 ng/mL*(h)²; AUMC(0-ꝏ) [12]: 839.61± 369.47 ng/mL*(h)²; AUMC(0-t) [13]: 291.74± 50.18 ng/mL*(h)²; AUMC(0-ꝏ) [13]: 2206.47± 2197.92 ng/mL*(h)² |
